Experiment [1] relates to C. albicans ON47. Description: Checkerboard, FMCI. As to conditions: EDTA + chlorhexidine HCl. The format is cell-based, Candida albicans. Here is the method:
(§1) An assay was made using a minimum inhibitory concentration (MIC) and minimum bactericidal concentration (MBC) and minimum fungicidal concentration (MFC) determination. The MIC was determined by the micro broth dilution method in 96-well plates. Serial two-fold dilutions of tetrasodium EDTA (from 2% to 0.015%), ethanol (from 50% to 0.1%) and chlorhexidine HCl (from 100 μg/mL to 0.025 μg/mL) were prepared in MH broth with a final volume of 90 μL per well. A 10 μL containing 1×10^5 bacterial cells or 2×10^3 fungal cells were added to each well. The inoculated plates were covered with a lid, sealed with Parafilm, and incubated for 24 h at 37° C. with slight rocking on a tilting platform shaker. After incubation, the optical density at 600 nm (OD 600) of the cultures in each well was measured using an xMark™ Microplate Absorbance Spectrophotometer (Bio-Rad). […] MBCs and MFCs were determined by transferring 100 μL from each well with no apparent growth onto appropriate agar plates, followed by incubation for 24 h at 37° C.
(§2) A fourth composition and solution included tetrasodium EDTA with ethanol or chlorhexidine HCl. […] The concentrations of antimicrobials used were based on previously determined MIC values. […] Microtiter plates were incubated at 37° C. for 24 h, and the results were analyzed. […]

The next experiment concerns E. coli SK2. Nature of the experiment: Checkerboard, FMCI. Conditions: EDTA + chlorhexidine HCl. The format is cell-based, Escherichia coli. Here is the method:
as §1, §2

For a further experiment, the system named is Escherichia coli SK2. Nature of the experiment: Checkerboard FBEC index, 48-h biofilm. The format is cell-based. As to conditions: E. coli SK2 biofilm; EDTA + chlorhexidine HCl.
For experiment [2], the system named is 48-h-old biofilms of bacterial and fungal strains. Nature of the experiment: MBEC assay, summary, 24 h exposure of 48-h-old biofilms. The format is cell-based. As to the method: A biofilm cultivation cell composition was provided. This fifth composition was created using an MBEC Assay® biofilm inoculator, consisting of a polystyrene lid with 96 downward-protruding pegs and a corresponding base used to grow biofilms. A standardized inoculum was diluted in an appropriate biofilm growth medium to achieve a viable cell count of 1.5×10^6 CFU/mL of bacterial cells or 5×10^5 CFU/mL of fungal cells. Then, 150 μL of this inoculum was transferred into each appropriate well, and the peg lids were inserted into the microtiter plates. The plates were sealed with Parafilm and were incubated at optimum temperature for 48 h with slight rocking for bacteria and shaking at 200 rpm for fungal strains. After incubation, the peg lid was removed from the base and rinsed twice with sterile phosphate-buffered saline (PBS) for 2 min to remove loosely attached non-sessile cells. Before the antimicrobial challenge, the pegs in column 1 (n=8) were considered the biofilm growth control; these pegs were removed from the lids, placed into 200 μL of recovery medium, and analyzed for starting biofilm cell numbers as described below. […] After the antimicrobial challenge, the pegs were rinsed twice with sterile PBS for 2 min and placed into a new 96-well plate containing 200 μL of recovery medium. The recovery plates were sealed with Parafilm, and biofilm cells were dislodged from the pegs by sonication for 30 min with a Branson 3510 bath sonicator. The biofilm cells in the recovery medium were serially diluted, and a drop dilution assay was performed to enumerate the viable cells. MBEC values were determined as the minimum concentration of antimicrobials that yielded a viable cell count at or lower than the 125 CFU/mL detection limit.

Experiment [3] deals with 48-h old biofilms of bacterial and fungal test organisms. Nature of the experiment: Rapid biofilm eradication, 2-h exposure. The format is cell-based. Conditions: each agent alone at its MBEC. As to the method:
Determining rapid biofilm eradication by tetrasodium EDTA, ethanol, and chlorhexidine HCl alone and in combination was performed. After biofilm formation, control pegs (n=6) were removed and analyzed to determine the starting biofilm cell numbers via the drop dilution method. The 48-h old biofilms on the pegs were exposed to different concentrations of test antimicrobials, dissolved in an appropriate growth medium, for two h to evaluate their efficacy alone and in combination. […] Following treatment, pegs were washed twice with sterile PBS, and the biofilm cells were dislodged into recovery medium and enumerated as described above.
The method for rapid biofilm eradication ability of test antimicrobials alone and in combination against 48-h-old biofilms within two h exposure time included (1) choosing different concentrations of test antimicrobials to assess their potency in eradicating preformed biofilms of study organisms within two h. Then (2) the quantitative recovery from biofilms following exposure to the antimicrobial solutions for bacterial strains (FIGS. 4A-4C) and fungal strains (FIG. 5) was evaluated.

Experiment [4] deals with S. epidermidis SK9. Nature of the experiment: Checkerboard, FMCI. The format is cell-based, Staphylococcus epidermidis. As to conditions: EDTA + chlorhexidine HCl. As to the method: as §1, §2
The next experiment concerns Escherichia coli ON29. Description: Checkerboard, FMCI. The format is cell-based. Conditions: E. coli ON29. Here is the method: as §1
(§3) A fourth composition and solution included tetrasodium EDTA with ethanol or chlorhexidine HCl. This fourth composition and solution were created using checkerboard titration methods using micro broth dilution in 96-well microtiter plates. The concentrations of antimicrobials used were based on previously determined MIC values. Briefly, 200 μL of two-fold dilutions of tetrasodium EDTA and ethanol or chlorhexidine HCl were prepared in MH or MH II broth with standardized cell suspension. […] Microtiter plates were incubated at 37° C. for 24 h, and the results were analyzed. Each test was performed in duplicate and included a growth control without adding any antimicrobials.

Another experiment concerns Proteus mirabilis ON153. Description: Checkerboard, FMCI. The format is cell-based. As to conditions: P. mirabilis ON153. As to the method:
as §1, §3

Experiment [5] relates to Staphylococcus aureus ON89. Nature of the experiment: Checkerboard, FMCI. The format is cell-based. As to conditions: S. aureus ON89. Here is the method:
as §1, §3

The subject of experiment [6] is Pseudomonas aeruginosa SK1. Nature of the experiment: Checkerboard, FMCI. The format is cell-based. Conditions: P. aeruginosa SK1. Here is the method: as §1, §3
Experiment [7] relates to Staphylococcus epidermidis ON170. Nature of the experiment: Checkerboard, FMCI. The format is cell-based. As to conditions: S. epidermidis ON170. Here is the method: as §1, §3
The test system of experiment [8] is Stenotrophomonas maltophilia ON17. Nature of the experiment: Checkerboard, FMCI. The format is cell-based. As to conditions: S. maltophilia ON17; EDTA + chlorhexidine HCl. Here is the method: as §1, §3
The next experiment deals with Serratia marcescens SK2. Description: Checkerboard, FMCI. The format is cell-based. As to conditions: S. marcescens SK2. As to the method: as §1, §3
The subject of the next experiment is Candida albicans SK4b. Nature of the experiment: Checkerboard, FMCI. The format is cell-based. Conditions: C. albicans SK4b. As to the method:
as §1, §3

The test system of a further experiment is MRSA ON184. Description: Checkerboard titration, FICI. The format is cell-based, Staphylococcus aureus. Here is the method:
as §3

Experiment [9] concerns C. albicans ON47. Nature of the experiment: Checkerboard titration, FICI. The format is cell-based, Candida albicans. Here is the method: as §3
Experiment [10] concerns Pseudomonas aeruginosa SK1. Nature of the experiment: Checkerboard FBEC index, 48-h biofilm. The format is cell-based. As to conditions: P. aeruginosa SK1 biofilm; EDTA + chlorhexidine HCl.
Protocol: (§4) In step (4), microtiter plates are incubated at 37° C. for 24 h. then (6), after incubation, the bacterial and fungal cells were dislodged from the pegs into the recovery medium described above.
(§5) Three 10-μL aliquots, for a total of 30 μL from each well of recovery medium, were spotted on MH agar plates and incubated for 24 h at 37° C. […] The FBEC determination is a modification of the FICI.
Experiment [11] relates to S. epidermidis SK9. Description: Checkerboard titration, FICI. The format is cell-based, Staphylococcus epidermidis. Here is the method: as §3
Where [12] appears, read: EDTA + chlorhexidine HCl checkerboard.

Counter-ions that a name gives are not always drawn.

Protocol for Escherichia coli SK2: as §4, §5

As to `O=C([O-])CN(CCN(CC(=O)[O-])CC(=O)[O-])CC(=O)[O-].[Na+].[Na+].[Na+].[Na+]` [EDTA, tetrasodium EDTA], the “Microbicidal concentration in combination” value (“Microbicidal concentration” for short) with C. albicans ON47 [1] was determined as 0.031 % w/v; with E. coli SK2 it was 0.015 % w/v; in the experiment on S. epidermidis SK9 [4] it was 0.008 % w/v; with Escherichia coli ON29 (EDTA + chlorhexidine HCl), 0.008 % w/v; in the experiment on Escherichia coli ON29 (EDTA + ethanol) it was 0.25 % w/v; in the experiment on Proteus mirabilis ON153 (EDTA + ethanol), 0.063 % w/v. The “Microbicidal concentration” value stood at 0.008 % w/v in experiment [5] (EDTA + chlorhexidine HCl); 0.25 % w/v in [5] (EDTA + ethanol); 0.031 % w/v in [6] (EDTA + chlorhexidine HCl); 0.031 % w/v in experiment [6] (EDTA + ethanol); 0.25 % w/v in [7] (EDTA + chlorhexidine HCl); 0.031 % w/v in experiment [7] (EDTA + ethanol). Moreover, the “Microbicidal concentration” value was 0.031 % w/v in [8], 0.25 % w/v in the experiment with Serratia marcescens SK2 (EDTA + ethanol) and 0.25 % w/v in the experiment with Candida albicans SK4b (EDTA + ethanol). The “Biofilm eradication concentration in combination (FBEC)” value with Escherichia coli SK2 is recorded as 0.031 % w/v; in experiment [10], 0.25 % w/v. For the same compound, in [2], the “Concentration alone able to eradicate all established biofilms following 24 h of treatment” value was 4%. The “Eradication of preformed biofilms after 2 h of exposure” value in experiment [3] is “failed to eradicate”. The “Inhibitory concentration in combination” value with MRSA ON184 (setting [12]) is recorded as 0.008 % w/v; in the experiment on MRSA ON184 (EDTA + ethanol checkerboard) it was 0.015 % w/v; with C. albicans ON47 [9] (setting [12]), 0.125 % w/v; with C. albicans ON47 [9] (EDTA + ethanol checkerboard) it was 0.25 % w/v; in the experiment with S. epidermidis SK9 [11] (setting [12]), 0.015 % w/v; in the experiment with S. epidermidis SK9 [11] (EDTA + ethanol checkerboard), 0.015 % w/v.
As for `[H]/N=C(\N/C(=N/[H])NCCCCCCNC(=N)NC(=N)Nc1ccc(Cl)cc1)Nc1ccc(Cl)cc1` [Chlorhexidine HCl, chlorhexidine HCl, reference compound], the “Microbicidal concentration” value in the experiment with C. albicans ON47 [1] was determined as 1.6 µg/mL; with E. coli SK2, 0.2 µg/mL; in the experiment with S. epidermidis SK9 [4], 0.4 µg/mL; with Escherichia coli ON29 (EDTA + chlorhexidine HCl), 0.2 µg/mL; in the experiment on Proteus mirabilis ON153 (EDTA + chlorhexidine HCl), 1.6 µg/mL; in experiment [5] (EDTA + chlorhexidine HCl) it was 0.2 µg/mL. Further, the “Microbicidal concentration” value is 1.6 µg/mL in [6] (EDTA + chlorhexidine HCl); 0.4 µg/mL in experiment [7] (EDTA + chlorhexidine HCl); 0.4 µg/mL in [8]; 1.6 µg/mL in the experiment with Serratia marcescens SK2 (EDTA + chlorhexidine HCl); 0.8 µg/mL in the experiment with Candida albicans SK4b (EDTA + chlorhexidine HCl). Also, the “Biofilm eradication concentration in combination (FBEC)” value (in the experiment on Escherichia coli SK2; in experiment [10]) was 3.125 µg/mL throughout. Moreover, the “Concentration alone able to eradicate all established biofilms following 24 h of treatment” value in experiment [2] is 100 µg/mL. Further, the “Eradication of preformed biofilms after 2 h of exposure” value in experiment [3] is listed as “failed to eradicate”. Further, the “Inhibitory concentration in combination” value in the experiment with MRSA ON184 (setting [12]) amounted to 0.2 µg/mL; in the experiment on C. albicans ON47 [9] (setting [12]) it was 0.8 µg/mL; in the experiment on S. epidermidis SK9 [11] (setting [12]), 0.025 µg/mL.

Values taken from US20230263758A1, “COMPOSITIONS OF EDTA HAVING ACTIVITY AGAINST PLANKTONIC AND BIOFILM CELLS OF CLINICALLY RELEVANT PATHOGENS” (SterileCare Inc., priority 2022, published 2023).
